Experimental data from patent US4316898A, “Cephalosporins” (Boehringer Ingelheim KG, priority 1979, dated 1982).
Converted amounts (≈) assume the structure as drawn.

Assays:
[1] = tested on: Pseudomonas aeruginosa Walter; test: Serial dilution test in the microtiter system, MIC against Pseudomonas aeruginosa Walter; format: cell-based; conditions: minimum inhibitory concentration, 37° C., 18 to 20 hours, read-out: MIC, Pseud. aerug. Walter
Method: (§1) The tests were performed using the serial dilution test in the microtiter system. The effect of the test compounds on bacteriostasis was examined at the following concentrations: 80, 40, 20, 10, 5, 2.5, 1.25, 0.6, 0.3, 0.08 and 0.02 μgm/ml. The nutrient medium consisted of 10 gm of peptone, 8 gm of meat extract oxoid, 3 gm of sodium chloride, and 2 gm of sec. sodium phosphate diluted with distilled water to […] (pH 7.2-7.4). Only in the test against streptococci 1% of glucose was added. The age of the primary cultures was approximately 20 hours. The standardization of the bacteria suspension was effected using a photometer according to the method of Eppendorf (test tube .phi. 14 mm, filter 546 nm), using for comparison a barium sulfate suspension formed by the addition of 3.0 ml of 1% barium chloride solution to 97 ml of 1% sulfuric acid. After the standardization,Streptococcus aronson was further diluted to a concentration of 1:15, and the other bacteria to a concentration of 1:1500, using a sodium chloride solution.
(§2) 16 mgm of the particular test compound were put into a 10 ml measuring flask, and the flask was subsequently filled to the mark with solvent. The further dilution series was standardized with distilled water or the appropriate solvent.
(§3) The cavities of the microtiter plates were filled with 0.2 ml of nutrient medium. 0.01 ml of the appropriate test compound solution was then added, followed by inoculation with 0.01 ml of the standardized bacteria suspension. The bacteria were incubated at 37° C. for 18 to 20 hours. Control tests using only the solvent were carried out simultaneously.
(§4) The measurement was carried out macroscopically to determine the minimum inhibitory concentration (the lowest still bacteriostatically effective concentration).
(§5) The following test organisms were used:
(§6) Staphylococcus aureus SG 511, St. aureus E 88 (β-lactamase carrier), Escherichia coli ATCC 11 775, Pseudomonas aeruginosa Hamburgensis and Pseudomonas aeruginosa Walter, Serratia macrescens ATCC 13 880, Klebsiella pneumoniae ATCC 10 031 and 272, Proteus mirabilis Hamburgensis, Proteus rettgeri Eb. cloaceae ATCC 13047, and E. coli R+TEM (β-lactamase carrier).
(§7) The following tables show the determined minimum inhibitory concentrations (MIC) for a few representative compounds (E=Na) of the present invention, and two known cephalosporins for comparison: […]

Proteus rettgeri = test: Serial dilution test in the microtiter system, MIC against Proteus rettgeri; format: cell-based; conditions: Providencia rettgeri; minimum inhibitory concentration; 37° C., 18 to 20 hours; read-out: MIC, Prot. rettg.
Method: as §1, §2, §3, §4, §5, §6, §7

[2] = tested on: Serratia macrescens ATCC 13 880; test: Serial dilution test in the microtiter system, MIC against Serratia marcescens ATCC 13880; format: cell-based; conditions: read-out: MIC, Serr. marcesc. ATCC 13880
Method: as §1, §2, §3, §4, §5, §6, §7

[3] = tested on: Escherichia coli ATCC 11 775; test: Serial dilution test in the microtiter system, MIC against E. coli ATCC 11775; format: cell-based; conditions: minimum inhibitory concentration, 37° C., 18 to 20 hours
Method: as §1, §2, §3, §4, §5, §6, §7

[4] = tested on: Klebsiella pneumoniae 272; test: Serial dilution test in the microtiter system, MIC against Klebsiella pneumoniae 272; format: cell-based; conditions: minimum inhibitory concentration, 37° C., 18 to 20 hours, read-out: MIC, Klebs. pneum. 272
Method: as §1, §2, §3, §4, §5, §6, §7

[5] = tested on: Pseudomonas aeruginosa Hamburgensis; test: Serial dilution test in the microtiter system, MIC against Pseudomonas aeruginosa Hamburgensis; format: cell-based; conditions: minimum inhibitory concentration, 37° C., 18 to 20 hours, read-out: MIC, Pseud. aerug. Hbg.
Method: as §1, §2, §3, §4, §5, §6, §7

[6] = tested on: Staphylococcus aureus SG 511; test: Serial dilution test in the microtiter system, MIC against S. aureus SG 511; format: cell-based; conditions: SG511, minimum inhibitory concentration, 37° C., 18 to 20 hours
Method: as §1, §2, §3, §4, §5, §6, §7

E. coli R+TEM = test: Serial dilution test in the microtiter system, MIC against E. coli R+TEM (β-lactamase carrier); format: cell-based; conditions: Escherichia coli, read-out: MIC, E. coli R + TEM
Method: as §1, §2, §3, §4, §5, §6, §7

[7] = tested on: Klebsiella pneumoniae ATCC 10 031; test: Serial dilution test in the microtiter system, MIC against Klebsiella pneumoniae ATCC 10031; format: cell-based; conditions: minimum inhibitory concentration, 37° C., 18 to 20 hours, read-out: MIC, Klebs. pneum. ATCC 10031
Method: as §1, §2, §3, §4, §5, §6, §7

[8] = tested on: Pseudomonas aeruginosa Walter; test: In vivo test in mice against experimental Pseudomonas infection; parameters: species or system Female NMRI mice; conditions: Pseudomonas aeruginosa, sc, 168 h; subcutaneous; per dose; dose at which 50% of the animals survived; observation 7 days
Method: (§8) A series of the compounds according to the invention was tested in vivo in mice against experimental infections. As pathogenic bacteria were used E. coli ATCC 11775 and Pseudomonas aeruginosa Walter. An intraperitoneal infection was induced in each mouse with 0.2 ml of a 5% mucin suspension of the bacteria corresponding of approximately 1.4×10^6 E. coli cells and 1.3×10^6 Pseudomonas cells per mouse. Female NMRI mice were used, divided into groups of 10 animals. Two groups were untreated and the remaining groups were treated with different doses of the cephalosporins to be tested to determine the ED50 (dose at which 50% of the animals survived). The groups infected with E. coli were on the first day treated with the test compound three times ([…] post infectionem) and on the second day twice. The groups with the Pseudomonas infection were on the first day treated with the test compound six times (1, 3, 5, 7, 9 and 11 hours post infectionem), and on the following two days twice.
(§9) The observation time was in both cases 7 days.

[9] = tested on: Proteus mirabilis Hamburgensis; test: Serial dilution test in the microtiter system, MIC against Proteus mirabilis Hamburgensis; format: cell-based; conditions: minimum inhibitory concentration, 37° C., 18 to 20 hours, read-out: MIC, Prot. Mir. Hbg.
Method: as §1, §2, §3, §4, §5, §6, §7

E. coli ATCC 11775 = test: In vivo test in mice against experimental E. coli infection; parameters: species or system Female NMRI mice; conditions: Escherichia coli, ATCC11775, sc, 168 h; subcutaneous; per dose; dose at which 50% of the animals survived; observation 7 days
Method: as §8, §9

St. aureus E 88 = test: Serial dilution test in the microtiter system, MIC against S. aureus E 88 (β-lactamase carrier); format: cell-based; conditions: Staphylococcus aureus, E88, minimum inhibitory concentration, 37° C., 18 to 20 hours
Method: as §1, §2, §3, §4, §5, §6, §7

Eb. cloaceae ATCC 13047 = test: Serial dilution test in the microtiter system, MIC against Eb. cloaceae ATCC 13047; format: cell-based; conditions: minimum inhibitory concentration; 37° C., 18 to 20 hours
Method: as §1, §2, §3, §4, §5, §6, §7

Row | SMILES | MIC [1] [µg/mL] | MIC (Proteus rettgeri) [µg/mL] | MIC [2] [µg/mL] | MIC [3] [µg/mL] | MIC [4] [µg/mL] | MIC [5] [µg/mL] | MIC [6] [µg/mL] | MIC (E. coli R+TEM) [µg/mL] | MIC [7] [µg/mL] | ED50 [8] [mg/kg] | MIC [9] [µg/mL] | ED50 (E. coli ATCC 11775) [mg/kg] | MIC (St. aureus E 88) [µg/mL] | MIC (Eb. cloaceae ATCC 13047) [µg/mL]
1 | Cn1nnnc1SCC1=C(C(=O)O)N2C(=O)[C@@H](NC(=O)[C@H](NC(=O)Nc3cnc(NCCCO)nc3O)c3ccc(O)cc3)[C@H]2SC1 [E] | 8 (≈ 11.6 µM) | 1 (≈ 1.45 µM) | 1 (≈ 1.45 µM) | 0.25 (≈ 0.364 µM) | 1 (≈ 1.45 µM) | 4 (≈ 5.82 µM) | 1 (≈ 1.45 µM) | 16 | 0.5 (≈ 0.727 µM) | 11.2 | 0.13 (≈ 0.189 µM) | 0.8 | 8 (≈ 11.6 µM) | 0.5 (≈ 0.727 µM)
2 | Cn1nnnc1SCC1=C(C(=O)O)N2C(=O)[C@@H](NC(=O)C(NC(=O)Nc3cnc(NC4CCC(O)CC4)nc3O)c3cccs3)[C@H]2SC1 (some centres unmarked) [F] | 16 (≈ 22.3 µM) | 2 (≈ 2.79 µM) | 2 (≈ 2.79 µM) | 0.5 (≈ 0.697 µM) | 2 (≈ 2.79 µM) | 16 (≈ 22.3 µM) | 1 (≈ 1.39 µM) | 16 | 2 (≈ 2.79 µM) | – | 0.5 (≈ 0.697 µM) | – | 8 (≈ 11.1 µM) | 4 (≈ 5.57 µM)
3 | Cc1nnc(SCC2=C(C(=O)O)N3C(=O)[C@@H](NC(=O)[C@H](NC(=O)Nc4cnc(NC5CCC(O)CC5)nc4O)c4ccc(O)cc4)[C@H]3SC2)s1 (some centres unmarked) [G] | 16 (≈ 21.5 µM) | 1 (≈ 1.34 µM) | 2 (≈ 2.69 µM) | 0.5 (≈ 0.672 µM) | 2 (≈ 2.69 µM) | 16 (≈ 21.5 µM) | 1 (≈ 1.34 µM) | 16 | 2 (≈ 2.69 µM) | – | 0.5 (≈ 0.672 µM) | – | 16 (≈ 21.5 µM) | 2 (≈ 2.69 µM)
4 | CNS(=O)(=O)c1ccc(Nc2ncc(NC(=O)N[C@@H](C(=O)N[C@@H]3C(=O)N4C(C(=O)O)=C(COC(C)=O)CS[C@H]34)c3ccc(O)cc3)c(O)n2)cc1 [H] | 4 (≈ 5.39 µM) | 0.5 (≈ 0.673 µM) | 0.5 (≈ 0.673 µM) | 0.13 (≈ 0.175 µM) | 0.5 (≈ 0.673 µM) | 4 (≈ 5.39 µM) | 1 (≈ 1.35 µM) | 16 | 0.5 (≈ 0.673 µM) | – | 0.6 (≈ 0.808 µM) | – | 16 (≈ 21.5 µM) | 2 (≈ 2.69 µM)
5 | CNc1nnc(SCC2=C(C(=O)O)N3C(=O)[C@@H](NC(=O)[C@H](NC(=O)Nc4cnc(Nc5ccc(S(=O)(=O)NC)cc5)nc4O)c4ccc(O)cc4)[C@H]3SC2)s1 [J] | 8 (≈ 9.64 µM) | 1 (≈ 1.2 µM) | 0.5 (≈ 0.602 µM) | 0.5 (≈ 0.602 µM) | 0.25 (≈ 0.301 µM) | 8 (≈ 9.64 µM) | 1 (≈ 1.2 µM) | 8 | 0.5 (≈ 0.602 µM) | – | 0.25 (≈ 0.301 µM) | – | 16 (≈ 19.3 µM) | 1 (≈ 1.2 µM)
6 | Cn1nnnc1SCC1=C(C(=O)O)N2C(=O)[C@@H](NC(=O)C(NC(=O)Nc3cnc(Nc4ccc(S(N)(=O)=O)cc4)nc3O)c3cccs3)[C@H]2SC1 (some centres unmarked) [M] | 4 (≈ 5.16 µM) | 0.5 (≈ 0.645 µM) | 0.25 (≈ 0.323 µM) | 0.13 (≈ 0.168 µM) | 0.25 (≈ 0.323 µM) | 4 (≈ 5.16 µM) | 0.5 (≈ 0.645 µM) | 4 | 0.25 (≈ 0.323 µM) | – | 0.13 (≈ 0.168 µM) | – | 4 (≈ 5.16 µM) | 0.5 (≈ 0.645 µM)
7 | CNS(=O)(=O)c1ccc(Nc2ncc(NC(=O)N[C@@H](C(=O)N[C@@H]3C(=O)N4C(C(=O)O)=C(CSc5nnc(C)s5)CS[C@H]34)c3ccc(O)cc3)c(O)n2)cc1 [N] | 4 (≈ 4.91 µM) | 0.5 (≈ 0.614 µM) | 0.25 (≈ 0.307 µM) | 0.25 (≈ 0.307 µM) | 0.5 (≈ 0.614 µM) | 4 (≈ 4.91 µM) | 1 (≈ 1.23 µM) | 4 | 0.25 (≈ 0.307 µM) | – | 0.5 (≈ 0.614 µM) | – | 8 (≈ 9.82 µM) | 1 (≈ 1.23 µM)
